Data from paper PMC4767141, “Discovery of Potent, Orally Bioavailable, Small-Molecule Inhibitors of WNT Signaling from a Cell-Based Pathway Screen” (Journal of Medicinal Chemistry, 2015).

What was measured:
5-HT6 (h) = molecular target: T1, 5-HT6 (h) (Homo sapiens, UniProt P50406); assay: CEREP binding panel; conditions: agonist radioligand, read-out: % Inhibition of Control Specific Binding
T1 construct: purchased Millipore KinaseProfiler (kinases); Cerep (receptors and ion channels)

CB1 (h) = molecular target: T2, CB1 (h) (Homo sapiens, UniProt P21554); assay: CEREP binding panel; conditions: 10 μM, agonist radioligand
T2 construct: purchased Millipore KinaseProfiler (kinases); Cerep (receptors and ion channels)

H1 (h) = molecular target: T3, H1 (h) (Homo sapiens, UniProt P35367); assay: CEREP binding panel; conditions: antagonist radioligand, read-out: % Inhibition of Control Specific Binding
T3 construct: purchased Millipore KinaseProfiler (kinases); Cerep (receptors and ion channels)

DMPK = molecular target: T4, DMPK (Homo sapiens, UniProt Q09013); assay: Millipore kinase panel; format: biochemical; conditions: read-out: % Control
T4 construct: purchased Millipore KinaseProfiler (kinases); Cerep (receptors and ion channels)

SAPK3 = molecular target: T5, SAPK3 (Homo sapiens, UniProt P53778); assay: Millipore kinase panel; format: biochemical; conditions: read-out: % Control
T5 construct: purchased Millipore KinaseProfiler (kinases); Cerep (receptors and ion channels)

MAPK1 = molecular target: T6, MAPK1 (Homo sapiens, UniProt P27361); assay: Millipore kinase panel; format: biochemical; conditions: read-out: % Control
T6 construct: purchased Millipore KinaseProfiler (kinases); Cerep (receptors and ion channels)
T6 sequence (P27361 whole entry): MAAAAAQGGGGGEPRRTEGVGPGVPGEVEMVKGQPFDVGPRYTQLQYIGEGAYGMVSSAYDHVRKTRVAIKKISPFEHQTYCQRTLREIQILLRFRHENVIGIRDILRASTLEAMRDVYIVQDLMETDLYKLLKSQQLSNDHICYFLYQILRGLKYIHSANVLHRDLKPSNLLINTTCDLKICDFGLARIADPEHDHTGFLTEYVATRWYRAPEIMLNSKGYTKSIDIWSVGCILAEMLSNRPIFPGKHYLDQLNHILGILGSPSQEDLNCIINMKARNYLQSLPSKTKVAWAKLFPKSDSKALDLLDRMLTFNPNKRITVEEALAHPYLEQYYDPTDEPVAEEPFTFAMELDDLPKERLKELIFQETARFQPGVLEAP

FGFR4 = molecular target: T7, FGFR4 (Homo sapiens, UniProt P22455); assay: Millipore kinase panel; format: biochemical; conditions: read-out: % Control
T7 construct: purchased Millipore KinaseProfiler (kinases); Cerep (receptors and ion channels)

DAPK2 = molecular target: T8, DAPK2 (Homo sapiens, UniProt Q9UIK4); assay: Millipore kinase panel; format: biochemical; conditions: read-out: % Control
T8 construct: purchased Millipore KinaseProfiler (kinases); Cerep (receptors and ion channels)

PDGFRBETA = molecular target: T9, PDGFRBETA (Homo sapiens, UniProt P09619); assay: Millipore kinase panel; format: biochemical; conditions: read-out: % Control
T9 construct: purchased Millipore KinaseProfiler (kinases); Cerep (receptors and ion channels)
T9 sequence (P09619 33-1106): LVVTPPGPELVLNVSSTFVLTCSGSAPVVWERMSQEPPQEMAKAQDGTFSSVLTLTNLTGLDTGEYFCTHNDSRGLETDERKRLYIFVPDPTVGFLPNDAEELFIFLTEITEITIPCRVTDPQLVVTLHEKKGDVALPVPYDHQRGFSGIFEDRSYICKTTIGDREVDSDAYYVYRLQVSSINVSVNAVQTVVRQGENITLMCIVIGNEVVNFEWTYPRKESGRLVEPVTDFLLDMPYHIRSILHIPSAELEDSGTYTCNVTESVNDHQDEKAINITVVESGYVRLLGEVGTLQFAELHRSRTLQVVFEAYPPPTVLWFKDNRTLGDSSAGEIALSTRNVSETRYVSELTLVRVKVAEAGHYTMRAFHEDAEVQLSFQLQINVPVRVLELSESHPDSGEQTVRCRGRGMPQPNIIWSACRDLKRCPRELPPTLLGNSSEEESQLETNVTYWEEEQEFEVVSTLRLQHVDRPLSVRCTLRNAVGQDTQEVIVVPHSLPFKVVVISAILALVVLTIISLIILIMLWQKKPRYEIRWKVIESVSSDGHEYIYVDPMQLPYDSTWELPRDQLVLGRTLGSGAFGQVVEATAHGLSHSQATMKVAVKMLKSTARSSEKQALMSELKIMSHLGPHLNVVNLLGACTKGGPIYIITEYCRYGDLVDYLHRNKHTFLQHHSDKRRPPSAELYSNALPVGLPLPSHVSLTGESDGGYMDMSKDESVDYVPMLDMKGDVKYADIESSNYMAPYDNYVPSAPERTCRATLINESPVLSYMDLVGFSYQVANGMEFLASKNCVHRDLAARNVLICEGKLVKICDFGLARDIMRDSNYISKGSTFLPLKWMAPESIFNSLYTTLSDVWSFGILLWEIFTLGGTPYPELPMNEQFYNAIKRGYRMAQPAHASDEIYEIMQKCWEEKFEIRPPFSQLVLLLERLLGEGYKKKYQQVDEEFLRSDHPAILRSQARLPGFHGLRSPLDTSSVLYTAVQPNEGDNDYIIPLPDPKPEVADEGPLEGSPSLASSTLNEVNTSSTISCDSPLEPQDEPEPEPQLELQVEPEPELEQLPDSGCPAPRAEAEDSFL

MAPKAP-K3 = molecular target: T10, MAPKAP-K3 (Homo sapiens, UniProt Q16644); assay: Millipore kinase panel; format: biochemical; conditions: read-out: % Control
T10 construct: purchased Millipore KinaseProfiler (kinases); Cerep (receptors and ion channels)

M3 (h) = molecular target: T11, M3 (h) (Homo sapiens, UniProt P20309); assay: CEREP binding panel; conditions: antagonist radioligand, read-out: % Inhibition of Control Specific Binding
T11 construct: purchased Millipore KinaseProfiler (kinases); Cerep (receptors and ion channels)

MELK = molecular target: T12, MELK (Homo sapiens, UniProt Q14680); assay: Millipore kinase panel; format: biochemical; conditions: read-out: % Control
T12 construct: purchased Millipore KinaseProfiler (kinases); Cerep (receptors and ion channels)

RIPK2 = molecular target: T13, RIPK2 (Homo sapiens, UniProt O43353); assay: Millipore kinase panel; format: biochemical; conditions: read-out: % Control
T13 construct: purchased Millipore KinaseProfiler (kinases); Cerep (receptors and ion channels)

IKKALPHA = molecular target: T14, IKKALPHA (Homo sapiens, UniProt O15111); assay: Millipore kinase panel; format: biochemical; conditions: read-out: % Control
T14 construct: purchased Millipore KinaseProfiler (kinases); Cerep (receptors and ion channels)

TXK = molecular target: T15, TXK (Homo sapiens, UniProt P42681); assay: Millipore kinase panel; format: biochemical; conditions: read-out: % Control
T15 construct: purchased Millipore KinaseProfiler (kinases); Cerep (receptors and ion channels)

PLK3 = molecular target: T16, PLK3 (Homo sapiens, UniProt Q9H4B4); assay: Millipore kinase panel; format: biochemical; conditions: read-out: % Control
T16 construct: purchased Millipore KinaseProfiler (kinases); Cerep (receptors and ion channels)

5-HT1B = molecular target: T17, 5-HT1B (Rattus norvegicus, UniProt P28564); assay: CEREP binding panel; conditions: antagonist radioligand, read-out: % Inhibition of Control Specific Binding
T17 construct: purchased Millipore KinaseProfiler (kinases); Cerep (receptors and ion channels)

TRKB = molecular target: T18, TRKB (Homo sapiens, UniProt Q16620); assay: Millipore kinase panel; format: biochemical; conditions: read-out: % Control
T18 construct: purchased Millipore KinaseProfiler (kinases); Cerep (receptors and ion channels)

MSSK1 = molecular target: T19, MSSK1 (Homo sapiens, UniProt Q9UPE1); assay: Millipore kinase panel; format: biochemical; conditions: read-out: % Control
T19 construct: purchased Millipore KinaseProfiler (kinases); Cerep (receptors and ion channels)

PAR-1BALPHA = molecular target: T20, PAR-1BALPHA (Homo sapiens, UniProt Q7KZI7); assay: Millipore kinase panel; format: biochemical; conditions: read-out: % Control
T20 construct: purchased Millipore KinaseProfiler (kinases); Cerep (receptors and ion channels)

CAMKIV = molecular target: T21, CAMKIV (Homo sapiens, UniProt Q16566); assay: Millipore kinase panel; format: biochemical; conditions: read-out: % Control
T21 construct: purchased Millipore KinaseProfiler (kinases); Cerep (receptors and ion channels)

IRAK1 = molecular target: T22, IRAK1 (Homo sapiens, UniProt P51617); assay: Millipore kinase panel; format: biochemical; conditions: read-out: % Control
T22 construct: purchased Millipore KinaseProfiler (kinases); Cerep (receptors and ion channels)

GABA (non-selective) = assay: CEREP binding panel; conditions: 10 μM, agonist radioligand
PTK5 = molecular target: T23, PTK5 (Homo sapiens, UniProt P42685); assay: Millipore kinase panel; format: biochemical; conditions: read-out: % Control
T23 construct: purchased Millipore KinaseProfiler (kinases); Cerep (receptors and ion channels)

FER = molecular target: T24, FER (Homo sapiens, UniProt P16591); assay: Millipore kinase panel; format: biochemical; conditions: read-out: % Control
T24 construct: purchased Millipore KinaseProfiler (kinases); Cerep (receptors and ion channels)

EPHB3 = molecular target: T25, EPHB3 (Homo sapiens, UniProt P54753); assay: Millipore kinase panel; format: biochemical; conditions: read-out: % Control
T25 construct: purchased Millipore KinaseProfiler (kinases); Cerep (receptors and ion channels)

μ (MOP) (h) = molecular target: T26, μ (MOP) (h) (Homo sapiens, UniProt P35372); assay: CEREP binding panel; conditions: 10 μM, agonist radioligand
T26 construct: purchased Millipore KinaseProfiler (kinases); Cerep (receptors and ion channels)

MRCKALPHA = molecular target: T27, MRCKALPHA (Homo sapiens, UniProt Q5VT25); assay: Millipore kinase panel; format: biochemical; conditions: read-out: % Control
T27 construct: purchased Millipore KinaseProfiler (kinases); Cerep (receptors and ion channels)
T27 sequence (Q5VT25 whole entry): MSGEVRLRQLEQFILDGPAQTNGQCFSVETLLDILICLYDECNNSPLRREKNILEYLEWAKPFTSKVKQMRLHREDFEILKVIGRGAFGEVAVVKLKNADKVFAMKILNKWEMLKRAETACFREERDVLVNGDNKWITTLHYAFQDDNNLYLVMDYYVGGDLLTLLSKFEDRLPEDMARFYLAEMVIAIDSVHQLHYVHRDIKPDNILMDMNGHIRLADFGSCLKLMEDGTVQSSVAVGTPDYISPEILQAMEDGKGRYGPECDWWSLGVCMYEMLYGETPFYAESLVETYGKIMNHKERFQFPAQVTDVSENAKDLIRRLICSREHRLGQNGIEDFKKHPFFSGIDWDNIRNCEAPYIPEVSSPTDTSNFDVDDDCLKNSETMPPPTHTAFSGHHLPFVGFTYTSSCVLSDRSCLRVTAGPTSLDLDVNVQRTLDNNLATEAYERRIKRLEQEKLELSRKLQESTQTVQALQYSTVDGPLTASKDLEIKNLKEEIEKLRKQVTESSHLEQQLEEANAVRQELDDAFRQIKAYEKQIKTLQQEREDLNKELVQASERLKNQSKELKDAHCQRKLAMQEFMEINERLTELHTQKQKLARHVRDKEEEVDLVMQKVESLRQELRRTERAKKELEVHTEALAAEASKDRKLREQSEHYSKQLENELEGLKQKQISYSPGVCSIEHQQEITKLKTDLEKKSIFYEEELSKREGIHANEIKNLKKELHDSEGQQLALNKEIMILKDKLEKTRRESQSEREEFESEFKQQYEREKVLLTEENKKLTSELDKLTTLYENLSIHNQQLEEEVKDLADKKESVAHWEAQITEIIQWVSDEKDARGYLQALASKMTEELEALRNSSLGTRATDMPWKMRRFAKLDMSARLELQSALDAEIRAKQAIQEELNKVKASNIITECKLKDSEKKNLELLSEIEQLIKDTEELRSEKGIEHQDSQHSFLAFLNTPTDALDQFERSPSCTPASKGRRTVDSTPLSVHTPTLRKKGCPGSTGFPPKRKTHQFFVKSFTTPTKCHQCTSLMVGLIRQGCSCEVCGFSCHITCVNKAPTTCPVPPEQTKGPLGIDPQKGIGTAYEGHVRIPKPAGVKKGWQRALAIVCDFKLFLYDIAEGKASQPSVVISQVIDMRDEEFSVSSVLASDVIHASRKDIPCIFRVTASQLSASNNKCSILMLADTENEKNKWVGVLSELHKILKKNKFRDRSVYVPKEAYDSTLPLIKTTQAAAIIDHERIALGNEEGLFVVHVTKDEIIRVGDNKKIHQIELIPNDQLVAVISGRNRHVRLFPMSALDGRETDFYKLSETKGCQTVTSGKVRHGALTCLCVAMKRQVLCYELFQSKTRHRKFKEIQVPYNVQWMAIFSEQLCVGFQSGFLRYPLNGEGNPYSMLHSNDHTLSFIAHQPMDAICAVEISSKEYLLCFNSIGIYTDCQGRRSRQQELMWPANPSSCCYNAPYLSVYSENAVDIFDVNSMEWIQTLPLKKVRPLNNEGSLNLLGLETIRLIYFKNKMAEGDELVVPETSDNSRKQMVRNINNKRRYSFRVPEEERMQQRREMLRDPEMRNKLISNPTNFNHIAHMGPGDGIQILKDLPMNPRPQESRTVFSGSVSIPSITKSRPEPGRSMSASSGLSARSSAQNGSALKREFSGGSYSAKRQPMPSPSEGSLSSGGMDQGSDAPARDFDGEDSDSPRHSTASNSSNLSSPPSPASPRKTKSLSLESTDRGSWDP

RET = molecular target: T28, RET (Homo sapiens, UniProt P07949); assay: Millipore kinase panel; format: biochemical; conditions: read-out: % Control
T28 construct: purchased Millipore KinaseProfiler (kinases); Cerep (receptors and ion channels)

DAPK1 = molecular target: T29, DAPK1 (Homo sapiens, UniProt P53355); assay: Millipore kinase panel; format: biochemical; conditions: read-out: % Control
T29 construct: purchased Millipore KinaseProfiler (kinases); Cerep (receptors and ion channels)
T29 sequence (P53355 whole entry): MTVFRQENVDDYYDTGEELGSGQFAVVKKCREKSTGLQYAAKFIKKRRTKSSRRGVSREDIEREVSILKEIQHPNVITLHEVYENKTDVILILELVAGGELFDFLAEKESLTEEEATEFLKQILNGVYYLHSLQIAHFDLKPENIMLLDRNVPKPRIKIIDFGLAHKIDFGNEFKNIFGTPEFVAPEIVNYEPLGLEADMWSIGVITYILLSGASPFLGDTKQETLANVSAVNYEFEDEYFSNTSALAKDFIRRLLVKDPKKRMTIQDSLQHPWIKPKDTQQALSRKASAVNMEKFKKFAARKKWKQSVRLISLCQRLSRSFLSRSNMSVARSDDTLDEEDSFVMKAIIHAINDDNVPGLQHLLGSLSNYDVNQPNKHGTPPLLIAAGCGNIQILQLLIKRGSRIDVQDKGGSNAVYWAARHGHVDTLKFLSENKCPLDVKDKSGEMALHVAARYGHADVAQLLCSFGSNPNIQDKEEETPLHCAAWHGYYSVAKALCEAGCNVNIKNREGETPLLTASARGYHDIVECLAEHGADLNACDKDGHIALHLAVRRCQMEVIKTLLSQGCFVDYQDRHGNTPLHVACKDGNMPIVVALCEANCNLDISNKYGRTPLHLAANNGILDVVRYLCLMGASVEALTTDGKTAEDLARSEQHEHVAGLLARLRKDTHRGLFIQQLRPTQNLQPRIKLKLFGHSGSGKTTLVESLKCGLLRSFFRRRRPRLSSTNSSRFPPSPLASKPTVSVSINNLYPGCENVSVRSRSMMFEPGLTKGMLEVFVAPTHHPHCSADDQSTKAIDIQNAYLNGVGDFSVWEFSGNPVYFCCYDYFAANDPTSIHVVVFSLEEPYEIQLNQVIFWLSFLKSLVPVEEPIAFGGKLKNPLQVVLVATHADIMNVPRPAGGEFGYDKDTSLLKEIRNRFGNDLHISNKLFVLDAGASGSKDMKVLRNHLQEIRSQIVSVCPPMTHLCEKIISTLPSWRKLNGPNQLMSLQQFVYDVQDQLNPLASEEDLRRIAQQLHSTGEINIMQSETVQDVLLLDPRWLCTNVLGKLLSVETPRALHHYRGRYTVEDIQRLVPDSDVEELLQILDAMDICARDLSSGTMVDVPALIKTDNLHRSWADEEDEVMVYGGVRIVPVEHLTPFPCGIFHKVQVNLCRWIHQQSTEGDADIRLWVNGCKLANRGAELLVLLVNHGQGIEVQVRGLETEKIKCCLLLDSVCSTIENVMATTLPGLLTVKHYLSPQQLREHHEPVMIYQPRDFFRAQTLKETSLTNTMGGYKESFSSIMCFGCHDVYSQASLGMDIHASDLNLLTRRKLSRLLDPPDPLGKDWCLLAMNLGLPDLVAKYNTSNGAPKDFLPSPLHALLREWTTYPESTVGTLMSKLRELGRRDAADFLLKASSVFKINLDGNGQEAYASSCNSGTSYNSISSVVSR

FAK = molecular target: T30, FAK (Homo sapiens, UniProt Q05397); assay: Millipore kinase panel; format: biochemical; conditions: read-out: % Control
T30 construct: purchased Millipore KinaseProfiler (kinases); Cerep (receptors and ion channels)

ALK = molecular target: T31, ALK (Homo sapiens, UniProt Q9UM73); assay: Millipore kinase panel; format: biochemical; conditions: read-out: % Control
T31 construct: purchased Millipore KinaseProfiler (kinases); Cerep (receptors and ion channels)

PKCMU = molecular target: T32, PKCMU (Homo sapiens, UniProt Q15139); assay: Millipore kinase panel; format: biochemical; conditions: read-out: % Control
T32 construct: purchased Millipore KinaseProfiler (kinases); Cerep (receptors and ion channels)

PYK2 = molecular target: T33, PYK2 (Homo sapiens, UniProt Q14289); assay: Millipore kinase panel; format: biochemical; conditions: read-out: % Control
T33 construct: purchased Millipore KinaseProfiler (kinases); Cerep (receptors and ion channels)

PRAK = molecular target: T34, PRAK (Homo sapiens, UniProt Q8IW41); assay: Millipore kinase panel; format: biochemical; conditions: read-out: % Control
T34 construct: purchased Millipore KinaseProfiler (kinases); Cerep (receptors and ion channels)

ITK = molecular target: T35, ITK (Homo sapiens, UniProt Q08881); assay: Millipore kinase panel; format: biochemical; conditions: read-out: % Control
T35 construct: purchased Millipore KinaseProfiler (kinases); Cerep (receptors and ion channels)

LCK = molecular target: T36, LCK (Homo sapiens, UniProt P06239); assay: Millipore kinase panel; format: biochemical
T36 construct: purchased Millipore
T36 sequence (P06239 whole entry): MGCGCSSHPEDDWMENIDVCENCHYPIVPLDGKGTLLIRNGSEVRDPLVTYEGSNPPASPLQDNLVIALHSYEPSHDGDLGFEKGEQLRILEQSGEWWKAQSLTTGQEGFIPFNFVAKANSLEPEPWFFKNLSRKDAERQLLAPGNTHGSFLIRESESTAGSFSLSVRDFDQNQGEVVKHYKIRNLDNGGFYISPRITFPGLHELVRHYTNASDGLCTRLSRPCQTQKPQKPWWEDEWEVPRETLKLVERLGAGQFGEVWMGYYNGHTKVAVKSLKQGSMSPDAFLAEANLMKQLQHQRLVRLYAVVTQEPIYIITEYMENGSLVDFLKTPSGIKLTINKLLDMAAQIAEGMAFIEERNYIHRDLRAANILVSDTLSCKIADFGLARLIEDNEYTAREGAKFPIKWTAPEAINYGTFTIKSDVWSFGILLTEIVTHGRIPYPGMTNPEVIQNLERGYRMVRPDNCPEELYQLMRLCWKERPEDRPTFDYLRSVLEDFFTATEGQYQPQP

AT1 (h) = molecular target: T37, AT1 (h) (Homo sapiens, UniProt P30556); assay: CEREP binding panel; conditions: antagonist radioligand, read-out: % Inhibition of Control Specific Binding
T37 construct: purchased Millipore KinaseProfiler (kinases); Cerep (receptors and ion channels)

[1] = tested on: Ca2+ channel (L, verapamil site) (phenylalkylamine); assay: CEREP binding panel; conditions: 10 μM, antagonist radioligand
PRKX = molecular target: T38, PRKX (Homo sapiens, UniProt P51817); assay: Millipore kinase panel; format: biochemical; conditions: read-out: % Control
T38 construct: purchased Millipore KinaseProfiler (kinases); Cerep (receptors and ion channels)

EPHB1 = molecular target: T39, EPHB1 (Homo sapiens, UniProt P54762); assay: Millipore kinase panel; format: biochemical; conditions: read-out: % Control
T39 construct: purchased Millipore KinaseProfiler (kinases); Cerep (receptors and ion channels)

PAK5 = molecular target: T40, PAK5 (Homo sapiens, UniProt Q9P286); assay: Millipore kinase panel; format: biochemical; conditions: read-out: % Control
T40 construct: purchased Millipore KinaseProfiler (kinases); Cerep (receptors and ion channels)

CHK2 = molecular target: T41, CHK2 (Homo sapiens, UniProt O96017); assay: Millipore kinase panel; format: biochemical; conditions: read-out: % Control
T41 construct: purchased Millipore KinaseProfiler (kinases); Cerep (receptors and ion channels)

[2] = Caco-2 Papp determination; format: in vitro ADME, human; conditions: human, Caco-2; 1 μM, pH 7.4

For `Cn1cc(-c2ccc(-c3cncc(Cl)c3N3CCC4(CCNC4=O)CC3)cc2)cn1` [Compound 74, 8-(3-Chloro-5-(4-(1-methyl-1H-pyrazol-4-yl)phenyl)pyridin-4-yl)-2,8-diazaspiro[4.5]decan-1-one], the inhibition at 10 µM (5-HT6 (h)) was 3%, the “% Inhibition of Control Specific Binding” value (CB1 (h)) was 2% and the inhibition at 10 µM (H1 (h)) was 16%. The remaining activity at 1 µM (DMPK) was 9%, the remaining activity at 1 µM (SAPK3) was 13% and the remaining activity at 1 µM (MAPK1) was 11%. The remaining activity at 1 µM (FGFR4) was 0%, the remaining activity at 1 µM (DAPK2) was 13% and the remaining activity at 1 µM (PDGFRBETA) was -6%. It also gave a remaining activity at 1 µM (MAPKAP-K3) of 7%, an inhibition at 10 µM (M3 (h)) of 46% and a remaining activity at 1 µM (MELK) of 32%. It also gave a remaining activity at 1 µM (RIPK2) of -6%, a remaining activity at 1 µM (IKKALPHA) of 4% and a remaining activity at 1 µM (TXK) of -2%. For the same molecule, the remaining activity at 1 µM (PLK3) was 0%, the inhibition at 10 µM (5-HT1B) was -7% and the remaining activity at 1 µM (TRKB) was -25%. It also gave a remaining activity at 1 µM (MSSK1) of -2%, a remaining activity at 1 µM (PAR-1BALPHA) of 4% and a remaining activity at 1 µM (CAMKIV) of 6%. For the same molecule, the remaining activity at 1 µM (IRAK1) was -9%, the “% Inhibition of Control Specific Binding” value (GABA (non-selective)) was 5% and the remaining activity at 1 µM (PTK5) was -18%. For the same molecule, the remaining activity at 1 µM (FER) was 11%, the remaining activity at 1 µM (EPHB3) was -2% and the “% Inhibition of Control Specific Binding” value (μ (MOP) (h)) was 42%. It also gave a remaining activity at 1 µM (MRCKALPHA) of -4%, a remaining activity at 1 µM (RET) of 1% and a remaining activity at 1 µM (DAPK1) of 0%. For the same molecule, the remaining activity at 1 µM (FAK) was -5%, the remaining activity at 1 µM (ALK) was -22% and the remaining activity at 1 µM (PKCMU) was -1%. It also gave a remaining activity at 1 µM (PYK2) of 5%, a remaining activity at 1 µM (PRAK) of 13% and a remaining activity at 1 µM (ITK) of -3%. For the same molecule, the IC50 (LCK; ATP at Km) was > 10 µM, the remaining activity at 1 µM (LCK; read-out: % Control) was 10% and the inhibition at 10 µM (AT1 (h)) was 8%. The “% Inhibition of Control Specific Binding” value [1] was 7%, the remaining activity at 1 µM (PRKX) was 2% and the remaining activity at 1 µM (EPHB1) was -7%. It also gave a remaining activity at 1 µM (PAK5) of 4%, a remaining activity at 1 µM (CHK2) of 7% and a Papp at 2 h, 1 μM [2] of 24 ×10⁻⁶ cm/s.
